From patent US20220204497A1, “NOVEL COMPOUND HAVING ANTICANCER ACTIVITY, AND METHOD FOR PRODUCING SAME” (MEDICINAL BIOCONVERGENCE RESEARCH CENTER, priority 2019, published 2022)

The compounds below were run on A549 cells (assay: Cell viability by MTT method in A549 cells). Settings: 72 hours treatment.
Format: cell-based
Set-up: concentration or dose not given beside the values

Structure (SMILES)	Cell Viability (% inhibition) (A549) [%]
Cc1ccc(S(=O)(=O)N[C@@H](CC(C)C)C(=O)N2CCOCC2)cc1 [Compound 1, (S)-4-methyl-N-(4-methyl-1-morpholino-1-oxopentan-2-yl)benzenesulfonamide]	17.79
Cc1ccc(S(=O)(=O)N[C@H](CC(C)C)C(=O)N2CCOCC2)cc1 [Compound 2, (R)-4-methyl-N-(4-methyl-1-morpholino-1-oxopentan-2-yl)benzenesulfonamide]	29.46
Cc1ccc(S(=O)(=O)N[C@@H](CC(C)C)C(=O)Nc2ccc(N3CCCCC3)cc2)cc1 [Compound 7, (S)-4-methyl-2-(4-methylphenylsulfonamido)-N-(4-(piperidin-1-yl)phenyl)pentanamide]	23.48
Cc1ccc(S(=O)(=O)N[C@@H](CC(C)C)C(=O)Nc2ccc(N3CCC(C)CC3)cc2)cc1 [Compound 8, (S)-4-methyl-2-(4-methylphenylsulfonamido)-N-(4-(4-methylpiperidin-1-yl)phenyl) pentanamide]	24.89
Cc1ccc(S(=O)(=O)N[C@@H](CC(C)C)C(=O)Nc2ccc(N3CCOCC3)cc2)cc1 [Compound 11, (S)-4-methyl-2-(4-methylphenylsulfonamido)-N-(4-morpholinophenyl)pentanamide]	23.76
Cc1ccc(S(=O)(=O)N[C@@H](CC(C)C)C(=O)Nc2ccc(N3CCS(=O)(=O)CC3)cc2)cc1 [Compound 15, (S)—N-(4-(1,1-dioxidothiomorpholino)phenyl)-4-methyl-2-(4-methylphenylsulfonamido)pentanamide]	4.86 ± 8.75
Cc1ccc(S(=O)(=O)N[C@@H](CC(C)C)C(=O)Nc2ccc(N3CCCC3)cc2)cc1 [Compound 17, (S)-4-methyl-2-(4-methylphenylsulfonamido)-N-(4-(pyrrolidin-1-yl)phenyl)pentanamide]	20.11
CC(C)C[C@H](NS(=O)(=O)c1ccc(F)cc1)C(=O)Nc1ccc(N2CCOCC2)cc1 [Compound 21, (S)-2-(4-fluorophenylsulfonamido)-4-methyl-N-(4-morpholinophenyl)pentanamide]	33.04
CC(C)C[C@H](NS(=O)(=O)c1ccc(Br)cc1)C(=O)Nc1ccc(N2CCOCC2)cc1 [Compound 22, (S)-2-(4-bromophenylsulfonamido)-4-methyl-N-(4-morpholinophenyl)pentanamide]	39.56 ± 5.42
CC(C)C[C@H](NS(=O)(=O)c1ccccc1)C(=O)Nc1ccc(N2CCOCC2)cc1 [Compound 27, (S)-4-methyl-N-(4-morpholinophenyl)-2-(phenylsulfonamido)pentanamide]	13.51 ± 9.40
COc1ccc(S(=O)(=O)N[C@@H](CC(C)C)C(=O)Nc2ccc(N3CCOCC3)cc2)cc1 [Compound 29, (S)-2-(4-methoxyphenylsulfonamido)-4-methyl-N-(4-morpholinophenyl)pentanamide]	12.70 ± 4.95
CC(C)C[C@H](NS(=O)(=O)c1ccc([N+](=O)[O-])cc1)C(=O)Nc1ccc(N2CCOCC2)cc1 [Compound 31, (S)-4-methyl-N-(4-morpholinophenyl)-2-(4-nitrophenylsulfonamido)pentanamide]	33.24 ± 4.95
CC(C)C[C@H](NS(=O)(=O)c1ccc(-c2ccccc2)cc1)C(=O)Nc1ccc(N2CCOCC2)cc1 [Compound 33, (S)-2-(biphenyl-4-ylsulfonamido)-4-methyl-N-(4-morpholinophenyl)pentanamide]	26.48 ± 3.66
Cc1ccc(S(=O)(=O)N[C@@H](C)C(=O)Nc2ccc(N3CCOCC3)cc2)cc1 [Compound 44, (S)-2-(4-methylphenylsulfonamido)-N-(4-morpholinophenyl)propanamide]	14.05 ± 4.05
CSCC[C@H](NS(=O)(=O)c1ccc(C)cc1)C(=O)Nc1ccc(N2CCOCC2)cc1 [Compound 45, (S)-2-(4-methylphenylsulfonamido)-4-(methylthio)-N-(4-morpholinophenyl)butanamide]	12.97 ± 1.24
Cc1ccc(S(=O)(=O)N[C@@H](Cc2ccccc2)C(=O)Nc2ccc(N3CCOCC3)cc2)cc1 [Compound 48, (S)-2-(4-methylphenylsulfonamido)-N-(4-morpholinophenyl)-3-phenylpropanamide]	45.68 ± 2.92
COc1ccc(-c2csc(NC(=O)[C@H](Cc3c[nH]c4ccccc34)NS(=O)(=O)c3ccc(Br)cc3)n2)cc1 [Compound 62, (S)-2-(4-Bromophenylsulfonamido)-3-(1H-indol-3-yl)-N-(4-(4-methoxyphenyl)thiazol-2-yl)propanamide]	90.17 ± 0.96

Structure (SMILES)	Cell Viability (% inhibition) (A549) [%]
Cc1ccccc1S(=O)(=O)N[C@@H](Cc1c[nH]c2ccccc12)C(=O)Nc1ccc(N2CCOCC2)cc1 [Compound 64, (S)-3-(1H-indol-3-yl)-2-(2-methylphenylsulfonamido)-N-(4-morpholinophenyl)propanamide]	51.75 ± 1.56
Cc1cccc(S(=O)(=O)N[C@@H](Cc2c[nH]c3ccccc23)C(=O)Nc2ccc(N3CCOCC3)cc2)c1 [Compound 65, (S)-3-(1H-indol-3-yl)-2-(3-methylphenylsulfonamido)-N-(4-morpholinophenyl)propanamide]	74.94 ± 1.04
Cc1ccc(S(=O)(=O)N[C@H](Cc2c[nH]c3ccccc23)C(=O)Nc2ccc(N3CCOCC3)cc2)cc1 [Compound 76, (R)-3-(1H-indol-3-yl)-2-(4-methylphenylsulfonamido)-N-(4-morpholinophenyl)propanamide]	63.47 ± 0.82
COC[C@H](C)Oc1ccc(-c2csc(NC(=O)[C@H](CC(C)C)NS(=O)(=O)c3ccc(C)cc3)n2)cc1 [Compound 98, (S)—N-(4-(4((S)-1-methoxypropan-2-yloxy)phenyl)thiazol-2-yl)-4-methyl-2-(4-methylphenylsulfonamido)pentanamide]	76.55 ± 1.52
Cc1ccc(S(=O)(=O)N[C@@H](CC(C)C)C(=O)Nc2nc(-c3ccc(N4CCOCC4)cc3)cs2)cc1 [Compound 99, (S)-4-Methyl-2-(4-methylphenylsulfonamido)-N-(4-(4-morpholinophenyl)thiazol-2-yl)pentanamide]	73.11 ± 3.83
COC(=O)c1ccc(-c2csc(NC(=O)[C@H](CC(C)C)NS(=O)(=O)c3ccc(C)cc3)n2)cc1 [Compound 100, (S)-Methyl 4-(2-(4-methyl-2-(4-methylphenylsulfonamido)pentanamido)thiazol-4-yl)benzoate]	79.24 ± 1
COc1ccc(-c2csc(NC(=O)[C@H](Cc3c[nH]c4ccccc34)NS(=O)(=O)c3ccc(Br)cc3)n2)c(OC)c1 [Compound 108, (S)-2-(4-Bromophenylsulfonamido)-N-(4-(2,4-dimethoxyphenyl)thiazol-2-yl)-3-(1H-indol-3-yl)propanamide]	9.05 ± 7.51
Cc1ccc(S(=O)(=O)N[C@@H](Cc2cn(C=O)c3ccccc23)C(=O)Nc2ccc(N3CCOCC3)cc2)cc1 [Compound 125, (S)-3-(1-Formyl-1H-indol-3-yl)-2-(4-methylphenylsulfonamido)-N-(4-morpholinophenyl)propanamide]	49.76 ± 2.98
COc1ccc(-c2cc(NC(=O)[C@H](Cc3c[nH]c4ccccc34)NS(=O)(=O)c3ccc(C)cc3)on2)cc1 [Compound 126, (S)-3-(1H-indol-3-yl)-N-(3-(4-methoxyphenyl)isoxazol-5-yl)-2-(4-methylphenylsulfonamido)propanamide]	85.53 ± 0.66
Cc1ccc(S(=O)(=O)N[C@@H](CO)C(=O)Nc2ccc(N3CCOCC3)cc2)cc1 [Compound 130, (S)-3-Hydroxy-2-(4-methylphenylsulfonamido)-N-(4-morpholinophenyl)propanamide]	16.62 ± 10.08
Cc1ccc(S(=O)(=O)N[C@H](C(=O)Nc2ccc(N3CCOCC3)cc2)C(C)C)cc1 [Compound 131, (S)-3-Methyl-2-(4-methylphenylsulfonamido)-N-(4-morpholinophenyl)butanamide]	5.78 ± 7.70
O=C(Nc1ccccc1)N[C@@H](Cc1c[nH]c2ccccc12)C(=O)N1CCOCC1 [Compound 132, (S)-1-(3-(1H-indol-3-yl)-1-morpholino-1-oxopropan-2-yl)-3-phenylurea]	−11.18 ± 5.31
Cc1ccc(S(=O)(=O)N[C@@H](Cc2c[nH]c3ccccc23)C(=O)Nc2ccc(N3CCOCC3)nc2)cc1 [Compound 133, (S)-3-(1H-indol-3-yl)-2-(4-methylphenylsulfonamido)-N-(6-morpholinopyridin-3-yl)propanamide]	6.18 ± 6.05
N#Cc1ccc(S(=O)(=O)N[C@@H](Cc2c[nH]c3ccccc23)C(=O)Nc2ccc(N3CCOCC3)cc2)cc1 [Compound 135, (S)-2-(4-Cyanophenylsulfonamido)-3-(1H-indol-3-yl)-N-(4-morpholinophenyl)propanamide]	55.02 ± 1.06
O=C(Nc1ccc(N2CCOCC2)cc1)[C@H](Cc1c[nH]c2ccccc12)NS(=O)(=O)c1ccc(C(F)(F)F)nc1 [Compound 136, (S)-3-(1H-indol-3-yl)-N-(4-morpholinophenyl)-2-(6-(trifluoromethyl)pyridine-3-sulfonamido)propanamide]	87.12 ± 2.3
COC(=O)CC[C@@H](C(=O)Nc1ccc(N2CCOCC2)cc1)N(C)S(=O)(=O)c1ccccc1 [Compound 137, (S)-Methyl 4-(methylphenylsulfonamido)-5-(4-morpholinophenylamino)-5-oxopentanoate]	17.75 ± 5.15
